{
  "source": "patent US20130190407A1",
  "about": "“CALCIUM RECEPTOR-ACTIVE MOLECULES” (NPS Pharmaceuticals, Inc., priority 1991, published 2013)",
  "assay_type_in_all_cases": "cell-based",
  "key": {"[1]": {"test_system": "Bovine parathyroid cells", "protocol": "This section describes measuring cyclic AMP levels. Cells were incubated as above for PTH secretion studies and at the end of the incubation, a 0.15-ml sample was taken and transferred to 0.85 ml of hot (70° C.) water and heated at this temperature for 5-10 minutes. The tubes were subsequently frozen and thawed several times and the cellular debris sedimented by centrifugation. Portions of the supernatant were acetylated and cyclic AMP concentrations determined by radioimmunoassay.\nBovine parathyroid cells were cultured for 16 hours with or without 100 ng/ml pertussis toxin. […] Each value is the mean±SEM of three experiments."}, "[2]": {"test_system": "Bovine parathyroid cells", "assay": "PTH secretion from bovine parathyroid cells", "settings": "concentrations that mobilize intracellular Ca2+", "protocol": "PTH secretion was measured by first suspending cells in PCB containing 0.5 mM CaCl2 and 0.1% BSA.\nCounting of samples and data reduction were performed on a Packard Cobra 5005 gamma counter."}, "[3]": {"test_system": "Bovine parathyroid cells", "assay": "Inositol phosphate formation in bovine parathyroid cells", "protocol": "After 30 seconds, the reaction was terminated by the addition of CHCl3:MeOH:HCl and IP1 (circles) and IP3 (triangles) separated by anion exchange chromatography. Each point is the mean of 2 experiments, each performed in triplicate.\nThis section describes procedures measuring inositol phosphate formation. Membrane phospholipids were labeled by incubating parathyroid cells with 4 μCi/ml ^3H-myo-inositol for 20-24 hours. Cells were then washed and resuspended in PCB containing 0.5 mM CaCl2 and 0.1% BSA. Incubations were performed in microfuge tubes in the absence or presence of various concentrations of organic polycation for different times. Reactions were terminated by the addition of 1 ml chloroform-methanol-12 N HCl (200:100:1; v/v/v). Aqueous phytic acid hydrolysate (200 μl; 25 μg phosphate/tube). The tubes were centrifuged and 600 μl of the aqueous phase was diluted into 10 ml water.\nInositol phosphates were separated by ion-exchange chromatography using AG1-X8 in either the chloride- or formate-form. When only IP3 levels were to be determined, the chloride-form was used, whereas the formate form was used to resolve the major inositol phosphates (IP3, IP2, and IP1). […] The last eluate was diluted and counted. […] The eluted samples from the formate columns were rotary evaporated, the residues brought up in cocktail, and counted."}, "[4]": {"biological_target": "T1, bovine parathyroid cell calcium receptor (Bos taurus, UniProt P35384)", "T1 construct": "isolation of a single clone (BoPCaR 1) with a cDNA insert of 5.3 kb; expressed in transfected cells", "T1 sequence (P35384 20-1085)": "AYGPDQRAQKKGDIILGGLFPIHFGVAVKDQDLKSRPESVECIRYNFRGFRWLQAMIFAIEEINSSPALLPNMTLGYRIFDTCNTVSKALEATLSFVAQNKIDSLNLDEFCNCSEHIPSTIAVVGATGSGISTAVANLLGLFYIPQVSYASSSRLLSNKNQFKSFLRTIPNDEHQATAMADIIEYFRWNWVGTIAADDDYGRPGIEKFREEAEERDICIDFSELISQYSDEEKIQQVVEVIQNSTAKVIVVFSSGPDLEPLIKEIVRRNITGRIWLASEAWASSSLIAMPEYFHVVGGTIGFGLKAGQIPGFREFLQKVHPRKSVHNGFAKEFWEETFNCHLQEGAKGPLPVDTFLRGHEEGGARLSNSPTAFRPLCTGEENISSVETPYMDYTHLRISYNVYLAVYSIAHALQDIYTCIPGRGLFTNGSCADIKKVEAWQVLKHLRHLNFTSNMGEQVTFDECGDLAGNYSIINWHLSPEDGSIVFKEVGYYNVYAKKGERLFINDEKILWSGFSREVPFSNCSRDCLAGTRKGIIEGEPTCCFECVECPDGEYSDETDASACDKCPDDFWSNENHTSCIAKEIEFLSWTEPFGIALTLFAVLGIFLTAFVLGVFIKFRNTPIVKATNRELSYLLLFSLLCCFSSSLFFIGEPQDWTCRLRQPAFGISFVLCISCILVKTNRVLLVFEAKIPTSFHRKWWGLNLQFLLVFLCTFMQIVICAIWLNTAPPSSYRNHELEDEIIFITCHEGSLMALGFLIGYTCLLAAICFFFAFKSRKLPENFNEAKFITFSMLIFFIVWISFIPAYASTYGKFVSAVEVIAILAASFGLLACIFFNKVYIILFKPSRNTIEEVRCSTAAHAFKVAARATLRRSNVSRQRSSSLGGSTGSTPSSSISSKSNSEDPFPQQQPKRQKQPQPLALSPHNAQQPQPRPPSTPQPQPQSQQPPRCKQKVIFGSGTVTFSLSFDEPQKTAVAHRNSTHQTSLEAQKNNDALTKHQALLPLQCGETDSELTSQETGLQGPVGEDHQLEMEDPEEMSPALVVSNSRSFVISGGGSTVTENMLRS", "assay": "Cl- current in Xenopus oocytes injected with BoPCaR 1", "settings": "1 mM extracellular Ca2+", "protocol": "Several pharmacological and biochemical criteria were used to identify this clone as encoding a bona fide bovine parathyroid Ca^2+ receptor. […] These responses increased markedly over a period of one to four days after injection of the eggs with cRNA prepared from the BoPCaR 1 cDNA. Furthermore, the ranges of the concentrations of the two cations eliciting this response were very similar to those shown previously to act on bovine parathyroid cells in vitro.\nXenopus oocytes were injected with BoPCaR 1, the 5.3 Kb cDNA encoding a bovine parathyroid cell calcium receptor as described in Example 25. After two to three days, Cl^− currents were examined in the oocytes using a two-electrode voltage clamp.\nXenopus oocytes were injected with BoPCaR 1 as described in Example 25. After two to three days, Cl^− currents were examined in the oocytes using two electrode voltage clamp."}, "[5]": {"biological_target": "T2, human parathyroid cell calcium receptor (Homo sapiens, UniProt P41180, E1011Q/Q926R)", "T2 construct": "appear to be full-length clones corresponding to the 5 Kb mRNA; expressed in transfected cells; host or cells: Xenopus laevis oocytes injected with pHuPCaR 5.2", "T2 sequence (P41180 20-1088 isoform P41180-2 Q936R/E1021Q)": "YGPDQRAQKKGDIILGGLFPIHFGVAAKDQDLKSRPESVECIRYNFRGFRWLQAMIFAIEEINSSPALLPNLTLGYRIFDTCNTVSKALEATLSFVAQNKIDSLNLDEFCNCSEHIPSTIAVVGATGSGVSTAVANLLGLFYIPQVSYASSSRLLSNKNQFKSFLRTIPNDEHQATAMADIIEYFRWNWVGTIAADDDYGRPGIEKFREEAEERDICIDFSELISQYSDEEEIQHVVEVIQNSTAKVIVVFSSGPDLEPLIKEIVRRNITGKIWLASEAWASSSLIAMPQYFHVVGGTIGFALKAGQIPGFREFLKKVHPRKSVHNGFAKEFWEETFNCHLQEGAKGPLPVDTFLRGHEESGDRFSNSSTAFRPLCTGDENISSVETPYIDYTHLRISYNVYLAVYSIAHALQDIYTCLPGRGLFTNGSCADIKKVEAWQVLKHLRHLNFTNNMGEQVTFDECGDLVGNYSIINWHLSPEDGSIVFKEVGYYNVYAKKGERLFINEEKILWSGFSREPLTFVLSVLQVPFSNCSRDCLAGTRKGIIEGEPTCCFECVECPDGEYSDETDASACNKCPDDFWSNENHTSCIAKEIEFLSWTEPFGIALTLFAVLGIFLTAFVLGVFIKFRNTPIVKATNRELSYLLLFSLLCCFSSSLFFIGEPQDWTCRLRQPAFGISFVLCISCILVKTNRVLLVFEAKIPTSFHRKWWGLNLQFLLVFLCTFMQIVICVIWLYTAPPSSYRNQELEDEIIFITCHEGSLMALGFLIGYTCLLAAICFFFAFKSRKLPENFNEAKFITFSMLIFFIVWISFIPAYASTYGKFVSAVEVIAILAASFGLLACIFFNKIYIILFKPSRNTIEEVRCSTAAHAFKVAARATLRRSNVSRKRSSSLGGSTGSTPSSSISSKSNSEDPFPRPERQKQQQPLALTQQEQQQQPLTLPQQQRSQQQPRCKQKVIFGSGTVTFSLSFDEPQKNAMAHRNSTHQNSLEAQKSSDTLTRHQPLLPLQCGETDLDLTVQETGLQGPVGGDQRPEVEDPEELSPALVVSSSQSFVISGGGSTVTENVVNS", "assay": "Cl- current in Xenopus oocytes injected with pHuPCaR 5.2", "settings": "3 to 30 μM; 0.3 mM extracellular Ca2+", "protocol": "Xenopus oocytes were injected with pHuPCaR 5.2, the 5.2 Kb cDNA encoding a parathyroid cell calcium receptor derived from a human parathyroid cell adenoma. (See Example 27.) After two to three days, Cl^− currents were measured in the oocytes using a two-electrode voltage clamp."}, "[6]": {"biological_target": "T3, osteoclast calcium receptor (Rattus norvegicus, UniProt P48442)", "T3 sequence (P48442 20-1079)": "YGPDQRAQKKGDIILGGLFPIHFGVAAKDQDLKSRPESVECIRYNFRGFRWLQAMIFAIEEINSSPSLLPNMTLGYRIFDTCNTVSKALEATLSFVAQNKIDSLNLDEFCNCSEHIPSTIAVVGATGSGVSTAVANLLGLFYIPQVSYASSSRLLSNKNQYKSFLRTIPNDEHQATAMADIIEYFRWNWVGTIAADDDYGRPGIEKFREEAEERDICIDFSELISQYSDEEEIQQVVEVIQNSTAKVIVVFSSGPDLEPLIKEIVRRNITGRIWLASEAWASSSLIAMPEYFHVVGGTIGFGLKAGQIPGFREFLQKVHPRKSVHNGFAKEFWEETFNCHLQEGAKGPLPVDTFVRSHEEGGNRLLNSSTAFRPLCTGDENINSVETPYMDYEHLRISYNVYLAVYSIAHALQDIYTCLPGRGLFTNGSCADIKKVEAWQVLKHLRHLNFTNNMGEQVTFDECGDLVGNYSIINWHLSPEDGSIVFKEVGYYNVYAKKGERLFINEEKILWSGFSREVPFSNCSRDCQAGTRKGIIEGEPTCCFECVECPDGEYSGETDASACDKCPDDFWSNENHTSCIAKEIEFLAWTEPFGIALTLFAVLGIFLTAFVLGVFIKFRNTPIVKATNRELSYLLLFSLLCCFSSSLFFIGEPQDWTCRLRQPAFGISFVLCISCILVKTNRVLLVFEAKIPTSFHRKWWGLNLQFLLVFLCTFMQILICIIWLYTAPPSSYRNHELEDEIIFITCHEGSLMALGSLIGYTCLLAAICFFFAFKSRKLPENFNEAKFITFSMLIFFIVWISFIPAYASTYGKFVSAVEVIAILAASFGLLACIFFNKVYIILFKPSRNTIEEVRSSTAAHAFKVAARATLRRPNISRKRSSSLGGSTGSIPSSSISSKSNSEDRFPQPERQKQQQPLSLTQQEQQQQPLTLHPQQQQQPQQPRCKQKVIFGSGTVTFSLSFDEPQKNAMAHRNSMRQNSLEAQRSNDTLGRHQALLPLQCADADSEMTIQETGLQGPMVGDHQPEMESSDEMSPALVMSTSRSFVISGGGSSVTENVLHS", "assay": "[Ca2+]i (indo-1) in single rat osteoclasts", "settings": "Table 6; rat osteoclasts, indo-1"}},
  "data": [
    {"compound": "protamine", "values": [
      {"measurement": "cyclic AMP (% of control), control", "setting": "[1]", "result": "20 ± 4 % of control"},
      {"measurement": "PTH secretion", "setting": "[2]", "result": "inhibited PTH secretion to the same extent as extracellular Ca^2+"},
      {"measurement": "formation of IP3", "setting": "[3]", "result": "rapid (within 30 seconds) increase in the formation of IP3"}
    ]},
    {"compound": "NCCCNCCCCNCCCNCCCNCCCNC(=O)Cc1c[nH]c2ccccc12", "note": "[NPS 019]", "values": [
      {"measurement": "Cl- current", "setting": "[4]", "result": "oscillatory increases in the Cl^− current"},
      {"measurement": "Cl- current", "setting": "[5]", "result": "evoked increases in the Cl^− current"},
      {"measurement": "EC50", "setting": "[6]", "result": "> 300", "unit": "µM"}
    ]}
  ]
}
